# Measured values from patent US20140045890A1, “NOVEL COMPOUNDS” (SYNGENTA PARTICIPATIONS AG, priority 2011, published 2014).
# How the values were obtained:
# [1] = test system: Phytophthora infestans; assay: whole plant or invertebrate; assay type: in vivo; conditions: in Solanum lycopersicum, foliar, read-out: inhibit fungal infestation (percent disease control compared to untreated)
# [2] = test system: Plasmopara viticola; assay: Plasmopara viticola / grape / leaf disc preventative; assay type: in vivo; conditions: foliar, grape vine leaf disks, inoculated 1 day after application, assessed 6-8 days after application, read-out: inhibit fungal infestation (percent disease control compared to untreated)
# [3] = test system: Blumeria qraminis f. sp. tritici (Erysiphe qraminis f. sp. tritici); assay: Blumeria graminis f. sp. tritici / wheat / leaf disc preventative (powdery mildew on wheat); assay type: in vivo; conditions: foliar, wheat leaf segments cv. Kanzler, inoculated 1 day after application, assessed 6-8 days after application, read-out: inhibit fungal infestation (percent disease control compared to untreated)
# [4] = test system: Phaeosphaeria nodorum (Septoria nodorum); assay: Phaeosphaeria nodorum (Septoria nodorum) / wheat / leaf disc preventative (glume blotch); assay type: in vivo; conditions: Parastagonospora nodorum, foliar, wheat leaf segments cv. Kanzler, inoculated 2 days after application, assessed 5-7 days after application, read-out: inhibit fungal infestation (percent disease control compared to untreated)
# [5] = test system: Pythium ultimum; assay: Pythium ultimum / liquid culture (seedling damping off); assay type: cell-based; conditions: Globisporangium ultimum, liquid culture in PDB, 24° C., 2-3 days after application, read-out: inhibit fungal infestation (inhibition of growth determined photometrically)
smiles,measurement,setting,value
C#Cc1cnc2c(C)cc(OC(SC)C(=O)NC(C)(C)c3ccccn3)cc2c1 (stereo not drawn) [Compound 7],inhibition at 200 ppm,[1],≥ 80%
same,inhibition at 200 ppm,[2],≥ 80%
same,inhibition at 200 ppm,[3],≥ 80%
same,inhibition at 200 ppm,[4],≥ 80%
same,inhibition at 200 ppm,[5],≥ 80%
same,melting point,,113 °C
CSC(Oc1ccc2ncc(Br)cc2c1)C(=O)NC(C)(C)c1ccccn1 (stereo not drawn) [Compound 8],inhibition at 200 ppm,[1],≥ 80%
same,inhibition at 200 ppm,[2],≥ 80%
same,inhibition at 200 ppm,[3],≥ 80%
same,inhibition at 200 ppm,[4],≥ 80%
same,inhibition at 200 ppm,[5],≥ 80%
same,melting point,,105 °C
CSC(Oc1cc(C)c2ncc(Br)cc2c1)C(=O)NC(C)(C)c1ccccn1 (stereo not drawn) [Compound 9],inhibition at 200 ppm,[1],≥ 80%
same,inhibition at 200 ppm,[2],≥ 80%
same,inhibition at 200 ppm,[3],≥ 80%
same,inhibition at 200 ppm,[4],≥ 80%
same,inhibition at 200 ppm,[5],≥ 80%
same,melting point,,123 °C
C#Cc1cnc2c(Cl)cc(OC(SC)C(=O)NC(C)(C)c3ccccn3)cc2c1 (stereo not drawn) [Compound 10],inhibition at 200 ppm,[1],≥ 80%
same,inhibition at 200 ppm,[2],≥ 80%
same,inhibition at 200 ppm,[3],≥ 80%
same,inhibition at 200 ppm,[4],≥ 80%
same,inhibition at 200 ppm,[5],≥ 80%
same,melting point,,153 °C
C#Cc1cnc2c(F)cc(OC(SC)C(=O)NC(C)(C)c3ccccn3)cc2c1 (stereo not drawn) [Compound 11],inhibition at 200 ppm,[1],≥ 80%
same,inhibition at 200 ppm,[2],≥ 80%
same,inhibition at 200 ppm,[3],≥ 80%
same,inhibition at 200 ppm,[4],≥ 80%
same,inhibition at 200 ppm,[5],≥ 80%
same,melting point,,125 °C
C#Cc1cnc2c(Cl)cc(OC(OC)C(=O)NC(C)(C)c3ccccn3)cc2c1 (stereo not drawn) [Compound 12],inhibition at 200 ppm,[1],≥ 80%
same,inhibition at 200 ppm,[2],≥ 80%
same,inhibition at 200 ppm,[3],≥ 80%
same,inhibition at 200 ppm,[4],≥ 80%
same,inhibition at 200 ppm,[5],≥ 80%
same,melting point,,108 °C
C#Cc1cnc2ccc(OC(CC)C(=O)NC(C)(C)c3ccccn3)cc2c1 (stereo not drawn) [Compound 13],inhibition at 200 ppm,[1],≥ 80%
same,inhibition at 200 ppm,[2],≥ 80%
same,inhibition at 200 ppm,[3],≥ 80%
same,inhibition at 200 ppm,[4],≥ 80%
same,inhibition at 200 ppm,[5],≥ 80%
same,melting point,,96 °C
C#Cc1cnc2ccc(OC(SC)C(=O)NC(C)(C)c3cccc(C)n3)cc2c1 (stereo not drawn) [Compound 15],inhibition at 200 ppm,[1],≥ 80%
same,inhibition at 200 ppm,[2],≥ 80%
same,inhibition at 200 ppm,[3],≥ 80%
same,inhibition at 200 ppm,[4],≥ 80%
same,inhibition at 200 ppm,[5],≥ 80%
same,melting point,,148 °C
"C#Cc1cnc2ccc(OC(SC)C(=O)NC(C)(C)c3cc(C)ccn3)cc2c1 (stereo not drawn) [Compound 18, 2-[(3-ethynyl-6-quinolyl)oxy]-N-[1-methyl-1-(4-methyl-2-pyridyl)ethyl]-2-methylsulfanyl-acetamide]",inhibition at 200 ppm,[1],≥ 80%
same,inhibition at 200 ppm,[2],≥ 80%
same,inhibition at 200 ppm,[3],≥ 80%
same,inhibition at 200 ppm,[4],≥ 80%
same,inhibition at 200 ppm,[5],≥ 80%
same,melting point,,63 °C
C#Cc1cnc2ccc(OC(SC)C(=O)NC(C)(CC)c3nc(C)cs3)cc2c1 (stereo not drawn) [Compound 20],inhibition at 200 ppm,[1],≥ 80%
same,inhibition at 200 ppm,[2],≥ 80%
same,inhibition at 200 ppm,[3],≥ 80%
same,inhibition at 200 ppm,[4],≥ 80%
same,inhibition at 200 ppm,[5],≥ 80%
same,melting point,,120 °C
C#Cc1cnc2c(C)cc(OC(SC)C(=O)NCc3nc(C)cs3)cc2c1 (stereo not drawn) [Compound 24],inhibition at 200 ppm,[1],≥ 80%
same,inhibition at 200 ppm,[2],≥ 80%
same,inhibition at 200 ppm,[3],≥ 80%
same,inhibition at 200 ppm,[4],≥ 80%
same,inhibition at 200 ppm,[5],≥ 80%
same,melting point,,148 °C
C#Cc1cnc2ccc(OC(SC)C(=O)NC(C)(C)c3nccs3)cc2c1 (stereo not drawn) [Compound 32],inhibition at 200 ppm,[1],≥ 80%
same,inhibition at 200 ppm,[2],≥ 80%
same,inhibition at 200 ppm,[3],≥ 80%
same,inhibition at 200 ppm,[4],≥ 80%
same,inhibition at 200 ppm,[5],≥ 80%
same,melting point,,123 °C
"C#Cc1cnc2c(C)cc(OC(SC)C(=O)NC(C)(C)c3ccon3)cc2c1 (stereo not drawn) [Compound 39, 2-[(3-ethynyl-8-methyl-6-quinolyl)oxy]-N-(1-isoxazol-3-yl-1-methyl-ethyl)-2-methylsulfanyl-acetamide]",inhibition at 200 ppm,[1],≥ 80%
same,inhibition at 200 ppm,[2],≥ 80%
same,inhibition at 200 ppm,[3],≥ 80%
same,inhibition at 200 ppm,[4],≥ 80%
same,inhibition at 200 ppm,[5],≥ 80%
C#Cc1cnc2ccc(OC(SC)C(=O)NC(C)(C)c3ccon3)cc2c1 (stereo not drawn) [Compound 44],inhibition at 200 ppm,[1],≥ 80%
same,inhibition at 200 ppm,[2],≥ 80%
same,inhibition at 200 ppm,[3],≥ 80%
same,inhibition at 200 ppm,[4],≥ 80%
same,inhibition at 200 ppm,[5],≥ 80%
"C#Cc1cnc2c(C)cc(OC(SC)C(=O)NC(C)(C)c3nocc3Br)cc2c1 (stereo not drawn) [Compound 45, N-[1-(4-bromoisoxazol-3-yl)-1-methyl-ethyl]-2-[(3-ethynyl-8-methyl-6-quinolyl)oxy]-2-methylsulfanyl-acetamide]",inhibition at 200 ppm,[2],≥ 80%
same,inhibition at 200 ppm,[3],≥ 80%
same,inhibition at 200 ppm,[4],≥ 80%
same,inhibition at 200 ppm,[5],≥ 80%
same,melting point,,63 to 65 °C
C#Cc1cnc2ccc(OC(SC)C(=O)NC(C)(C)c3nocc3Cl)cc2c1 (stereo not drawn) [Compound 51],inhibition at 200 ppm,[1],≥ 80%
same,inhibition at 200 ppm,[2],≥ 80%
same,inhibition at 200 ppm,[3],≥ 80%
same,inhibition at 200 ppm,[4],≥ 80%
same,inhibition at 200 ppm,[5],≥ 80%
C#Cc1cnc2ccc(OC(SC)C(=O)NC(C)(C)c3cc(C)on3)cc2c1 (stereo not drawn) [Compound 53],inhibition at 200 ppm,[1],≥ 80%
same,inhibition at 200 ppm,[2],≥ 80%
same,inhibition at 200 ppm,[3],≥ 80%
same,inhibition at 200 ppm,[4],≥ 80%
same,inhibition at 200 ppm,[5],≥ 80%
C#Cc1cnc2ccc(OC(SC)C(=O)NC(C)(C)c3cc(Cl)on3)cc2c1 (stereo not drawn) [Compound 73],inhibition at 200 ppm,[1],≥ 80%
same,inhibition at 200 ppm,[2],≥ 80%
same,inhibition at 200 ppm,[3],≥ 80%
same,inhibition at 200 ppm,[4],≥ 80%
same,inhibition at 200 ppm,[5],≥ 80%
C=Cc1cnc2c(C)cc(OC(OC)C(=O)NC(C)(C)c3nc(C)cs3)cc2c1 (stereo not drawn) [Compound 135],inhibition at 200 ppm,[1],≥ 80%
same,inhibition at 200 ppm,[2],≥ 80%
same,inhibition at 200 ppm,[3],≥ 80%
same,inhibition at 200 ppm,[4],≥ 80%
same,inhibition at 200 ppm,[5],≥ 80%
same,melting point,,139 °C
